From patent US20240366567A1, “PHARMACEUTICAL COMBINATIONS COMPRISING A KRAS G12C INHIBITOR AND USES THEREOF FOR THE TREATMENT OF CANCERS” (NOVARTIS AG, priority 2021, published 2024)
Where two headings read alike, the source gives them in different places.

Assays:
[1] = biological target: T1, KRAS G12C (Homo sapiens, UniProt P01116, G12C); assay: PK/PD modeling of target occupancy in patients
T1 construct: from tissue; host or cells: patients' KRAS G12C-mutated tumours (model prediction, nothing measured on protein)
T1 sequence (P01116 1-188 isoform P01116-2 G12C): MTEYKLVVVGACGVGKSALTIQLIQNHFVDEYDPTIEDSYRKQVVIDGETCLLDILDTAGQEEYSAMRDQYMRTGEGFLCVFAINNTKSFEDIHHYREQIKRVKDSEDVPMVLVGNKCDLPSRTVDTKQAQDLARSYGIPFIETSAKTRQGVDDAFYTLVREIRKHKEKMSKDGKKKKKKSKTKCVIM
Procedure: FIG. 15: PK and target occupancy profiles of JDQ443 RD 200 mg BID. […] Error bars indicate standard deviation for PK profile at each timepoint.

[2] = tested on: Ba/F3 cells expressing FLAG-KRAS G12C/Y96C; assay: Ba/F3 proliferation, CellTiter-Glo, 3 days (Example 4); type: cell-based, murine
Procedure: (§1) The parental Ba/F3 cells were cultured in the presence of 5 ng/ml of recombinant murine IL-3 (Life Technologies, #PMC0035).
(§2) The mutant plasmids were transfected into the Ba/F3 WT cells by electroporation with the NEON transfection kit (Invitrogen, #MPK10025).
(§3) Ba/F3 cells are normally dependent on IL-3 to survive and proliferate, however, by expressing oncogenes they are able to switch their dependency from IL-3 to the expressed oncogene. […] Cell number and viability was measured every three days and after seven days the IL-3 withdrawal was completed.
(§4) Treatment was performed on the same day with a Tecan D300e drug dispenser. Viability was detected on the same day of treatment for the start plate (Day 0) and three days post-treatment (Day 3) using the CellTiter-Glo Luminescent Cell Viability Assay (Promega, #G7573) on a Tecan infinitiy M200 Pro reader (Intergration Time 1000 ms).
(§5) To determine the growth, the three days post-treatment (Day 3) readout was normalized to start plate (Day 0). The percentage viability was then calculated by normalizing treated wells to DMSO treated control samples. XLfit was used to make the fitted curve with a Sigmoidal Dose-Response Model (four-parameter curve) (FIG. 9).

[3] = tested on: Ba/F3 cells expressing FLAG-KRAS G12C/H95R; assay: as above; type: cell-based, murine
Procedure: as §1, §2, §3, §4, §5

[4] = tested on: Ba/F3 cells expressing FLAG-KRAS G12C/Y96D; assay: as above; type: cell-based, murine
Procedure: as §1, §2, §3, §4, §5

[5] = tested on: Ba/F3 cells expressing FLAG-KRAS^G12C; assay: as above; type: cell-based, murine; conditions: for GI50: Mus musculus
Procedure: as §1, §2, §3, §4, §5

[6] = tested on: Ba/F3 cells expressing FLAG-KRAS G12C/R68S; assay: as above; type: cell-based, murine
Procedure: as §1, §2, §3, §4, §5

[7] = tested on: Ba/F3 cells expressing FLAG-KRAS G12C/H95D; assay: as above; type: cell-based, murine; conditions: for % growth of treated cells relative to day 3 treatment: H95D
Procedure: as §1, §2, §3, §4, §5

[8] = tested on: Ba/F3 cells expressing FLAG-KRAS G12C/H95Q; assay: as above; type: cell-based, murine; conditions: for % growth of treated cells relative to day 3 treatment: H95Q
Procedure: as §1, §2, §3, §4, §5

[9] = tested on: NCI-H2030 (NSCLC) xenograft; assay: KRAS G12C-mutated CDX model, single-agent antitumor activity; type: in vivo, mice; conditions: daily oral doses of 10, 30 and 100 mg/kg
Procedure: A. Aggregated best tumor growth inhibition in six KRASG12C tumor models. JDQ443 efficacy was evaluated after oral dosing of 10, 30 and 100 mg/kg/day in six human KRAS G12C mutant CDX models in mice. In dark grey NSCLC cell line models are depicted, while in light grey PDAC (MIA Paca-2) and esophageal (KYSE-410) cancer cell line models are shown. Data are means from 2-11 independent in vivo studies. B-G. CDX-bearing mice with KRAS G12C-mutated (C-G) and non-KRAS G12C-mutated (NCI-441, KRASG12V; B) tumors were treated orally with JDQ443 at indicated doses and schedules. G. LU99 tumor-bearing mice were treated with JDQ443 by continuous intravenous infusion using a minipump. H-I. Simulated pop-PKPD metrics (H) daily AUC of JDQ443 in mouse blood and (I) average free KRASG12C levels in tumor at steady state, are correlated with the observed efficacy in LU99 (T/C or % regression). Points correspond to the mean and the error bars to ±1 S.D of the simulated PK/PD metrics based on 100 simulations and observed efficacy metrics.
Single-agent antitumor activity of JDQ443 at daily oral doses of 10 mg/kg, 30 mg/kg and 100 mg/kg, in a panel of KRAS G12C-mutated CDX models across different indications. Cell lines for xenografting were: MIA PaCa-2 (PDAC); NCI-H2122, LU99, HCC-44, NCI-H2030 (NSCLC); and KYSE410 (esophageal cancer). […] Efficacy was maintained across once- (QD) or twice-daily (BID) administration of the same daily dose: 30 mg/kg QD versus 15 mg/kg BID in MIA PaCa-2 (FIG. 8C), or 100 mg/kg QD versus 50 mg/kg BID in NCI-H2122 and LU99 (FIG. 8D-E).

For C=CC(=O)N1CC2(CC(n3nc(-c4ccc5c(cnn5C)c4)c(-c4c(Cl)c(C)cc5[nH]ncc45)c3C)C2)C1 (single isomer, unassigned) [Compound A, 1-{6-[(4M)-4-(5-Chloro-6-methyl-1H-indazol-4-yl)-5-methyl-3-(1-methyl-1H-indazol-5-yl)-1H-pyrazol-1-yl]-2-azaspiro[3.3]heptan-2-yl}prop-2-en-1-one], the “predicted target occupancy in patients” value ([1]; 200 mg BID, in >82% patients, patient PK and preclinical target occupancy models) was greater than 90%, the “predicted target occupancy” value ([1]; recommended dose of 200 mg BID, PD/PK modeling) was “sustained, high-level target occupancy” and the “% growth of treated cells relative to day 3 treatment” value ([2]; conc 0.000457 μM) was 109.116%. For the same molecule, the “% growth of treated cells relative to day 3 treatment” value ([2]; conc 0.001372 μM) was 102.424%, the “% growth of treated cells relative to day 3 treatment” value ([2]; conc 0.004115 μM) was 105.515% and the “% growth of treated cells relative to day 3 treatment” value ([2]; conc 0.012346 μM) was 96.167%. The “% growth of treated cells relative to day 3 treatment” value ([2]; conc 0.037037 μM) was 104.222%, the “% growth of treated cells relative to day 3 treatment” value ([2]; conc 0.111111 μM) was 102.592% and the “% growth of treated cells relative to day 3 treatment” value ([2]; conc 0.333333 μM) was 91.765%. The “% growth of treated cells relative to day 3 treatment” value ([2]; conc 1 μM) was 80.229%, the “% growth of treated cells relative to day 3 treatment” value ([3]; conc 0.000457 μM) was 103.118% and the “% growth of treated cells relative to day 3 treatment” value ([3]; conc 0.001372 μM) was 92.517%. The “% growth of treated cells relative to day 3 treatment” value ([3]; conc 0.004115 μM) was 83.996%, the “% growth of treated cells relative to day 3 treatment” value ([3]; conc 0.012346 μM) was 66.971% and the “% growth of treated cells relative to day 3 treatment” value ([3]; conc 0.037037 μM) was 52.178%. The “% growth of treated cells relative to day 3 treatment” value ([3]; conc 0.111111 μM) was 23.425%, the “% growth of treated cells relative to day 3 treatment” value ([3]; conc 0.333333 μM) was 5.323% and the “% growth of treated cells relative to day 3 treatment” value ([3]; conc 1 μM) was 0.321%. For the same molecule, the “% growth of treated cells relative to day 3 treatment” value ([4]; conc 0.000457 μM) was 100.903%, the “% growth of treated cells relative to day 3 treatment” value ([4]; conc 0.001372 μM) was 102.224% and the “% growth of treated cells relative to day 3 treatment” value ([4]; conc 0.004115 μM) was 98.191%. The “% growth of treated cells relative to day 3 treatment” value ([4]; conc 0.012346 μM) was 106.613%, the “% growth of treated cells relative to day 3 treatment” value ([4]; conc 0.037037 μM) was 103.946% and the “% growth of treated cells relative to day 3 treatment” value ([4]; conc 0.111111 μM) was 105.866%. The “% growth of treated cells relative to day 3 treatment” value ([4]; conc 0.333333 μM) was 97.260%, the “% growth of treated cells relative to day 3 treatment” value ([4]; conc 1 μM) was 90.864% and the “% growth of treated cells relative to day 3 treatment” value ([5]; G12C, conc 0.000457 μM) was 95.501%. The “% growth of treated cells relative to day 3 treatment” value ([5]; G12C, conc 0.001372 μM) was 97.516%, the “% growth of treated cells relative to day 3 treatment” value ([5]; G12C, conc 0.004115 μM) was 93.832% and the “% growth of treated cells relative to day 3 treatment” value ([5]; G12C, conc 0.012346 μM) was 89.361%. The “% growth of treated cells relative to day 3 treatment” value ([5]; G12C, conc 0.037037 μM) was 72.785%, the “% growth of treated cells relative to day 3 treatment” value ([5]; G12C, conc 0.111111 μM) was 44.204% and the “% growth of treated cells relative to day 3 treatment” value ([5]; G12C, conc 0.333333 μM) was 20.252%. The “% growth of treated cells relative to day 3 treatment” value ([5]; G12C, conc 1 μM) was 4.279%, the GI50 ([5]; BaF3, 72 h, G12C, 3 days, average of 4 independent experiments, read-out: GI50 ± St DV) was 115 ± 60 nM and the GI50 ([5]; BaF3, KRAS G12C, read-out: GI50) was 115 ± 60 nM. The “% growth of treated cells relative to day 3 treatment” value ([6]; conc 0.000457 μM) was 100.931%, the “% growth of treated cells relative to day 3 treatment” value ([6]; conc 0.001372 μM) was 103.390% and the “% growth of treated cells relative to day 3 treatment” value ([6]; conc 0.004115 μM) was 100.329%. The “% growth of treated cells relative to day 3 treatment” value ([6]; conc 0.012346 μM) was 104.608%, the “% growth of treated cells relative to day 3 treatment” value ([6]; conc 0.037037 μM) was 108.276% and the “% growth of treated cells relative to day 3 treatment” value ([6]; conc 0.111111 μM) was 103.721%. For the same molecule, the “% growth of treated cells relative to day 3 treatment” value ([6]; conc 0.333333 μM) was 93.111%, the “% growth of treated cells relative to day 3 treatment” value ([6]; conc 1 μM) was 69.159% and the “% growth of treated cells relative to day 3 treatment” value ([7]; conc 0.000457 μM) was 96.429%. For the same molecule, the “% growth of treated cells relative to day 3 treatment” value ([7]; conc 0.001372 μM) was 91.567%, the “% growth of treated cells relative to day 3 treatment” value ([7]; conc 0.004115 μM) was 90.379% and the “% growth of treated cells relative to day 3 treatment” value ([7]; conc 0.012346 μM) was 97.783%. The “% growth of treated cells relative to day 3 treatment” value ([7]; conc 0.037037 μM) was 102.308%, the “% growth of treated cells relative to day 3 treatment” value ([7]; conc 0.111111 μM) was 88.358% and the “% growth of treated cells relative to day 3 treatment” value ([7]; conc 0.333333 μM) was 68.199%. For the same molecule, the “% growth of treated cells relative to day 3 treatment” value ([7]; conc 1 μM) was 28.569%, the GI50 ([7]; Mus musculus, BaF3, 72 h, G12C/H95D, 3 days, average of 4 independent experiments) was 612 ± 151 nM and the “% growth of treated cells relative to day 3 treatment” value ([8]; conc 0.000457 μM) was 100.054%. For the same molecule, the “% growth of treated cells relative to day 3 treatment” value ([8]; conc 0.001372 μM) was 93.606%, the “% growth of treated cells relative to day 3 treatment” value ([8]; conc 0.004115 μM) was 103.375% and the “% growth of treated cells relative to day 3 treatment” value ([8]; conc 0.012346 μM) was 95.722%. For the same molecule, the “% growth of treated cells relative to day 3 treatment” value ([8]; conc 0.037037 μM) was 93.319%, the “% growth of treated cells relative to day 3 treatment” value ([8]; conc 0.111111 μM) was 71.333% and the “% growth of treated cells relative to day 3 treatment” value ([8]; conc 0.333333 μM) was 36.908%. For the same molecule, the “% growth of treated cells relative to day 3 treatment” value ([8]; conc 1 μM) was 6.635%, the GI50 ([8]; Mus musculus, BaF3, 72 h, G12C/H95Q, 3 days, average of 4 independent experiments) was 284 ± 41 nM and the maximal response pattern [9] was “moderate tumor inhibition”.
